Results from US20200108074A1, “COMBINATIONS OF CHK1- AND WEE1- INHIBITORS” (Seattle Genetics, Inc., priority 2017, published 2020).
“Also recorded” adds a separate entry of the source.

How the values were obtained:
Jeko-1 cells [1] = test: Jeko-1 MCL tumor xenograft model, combination with Wee1 inhibitor; format: in vivo; conditions: Compound 1 7.5 mg/kg, AZD-1775 15 mg/kg, or both
Description: A Jeko-1 mantle cell lymphoma (MCL) tumor xenograft model was used to study the combined effects of Chk1 inhibition with Compound 1 and a Wee1 inhibitor. Jeko-1 cells were inoculated subcutaneously into the flanks of CB17.SCID mice. Once tumors reached a volume of about 200 mm^3, mice were randomized into study groups (n=10 per group). […] A negative control group was included wherein the mice were treated with vehicle only.

Metabolic stability = format: in vitro ADME
[2] = GLP cardiovascular safety study; format: in vivo; conditions: QTc interval, left ventricular pressure, contractility end points
From the text: 7-day repeat dose tolerability studies have been completed in mice, rats, and cynomolgus monkeys, and there have been no findings in a cynomolgus monkey GLP cardiovascular safety study (including corrected QT (QTc) interval, left ventricular pressure (LVP), and contractility end points). Compound 1 is active as a single agent, but is also active in combination with chemotherapeutic agents and Wee1 inhibitors.

Chk2 = Chk2 (Homo sapiens, UniProt O96017); test: Kinase panel selectivity, IC50 relative to Chk1; format: biochemical
Chk2, sequence (O96017 whole entry, species assumed): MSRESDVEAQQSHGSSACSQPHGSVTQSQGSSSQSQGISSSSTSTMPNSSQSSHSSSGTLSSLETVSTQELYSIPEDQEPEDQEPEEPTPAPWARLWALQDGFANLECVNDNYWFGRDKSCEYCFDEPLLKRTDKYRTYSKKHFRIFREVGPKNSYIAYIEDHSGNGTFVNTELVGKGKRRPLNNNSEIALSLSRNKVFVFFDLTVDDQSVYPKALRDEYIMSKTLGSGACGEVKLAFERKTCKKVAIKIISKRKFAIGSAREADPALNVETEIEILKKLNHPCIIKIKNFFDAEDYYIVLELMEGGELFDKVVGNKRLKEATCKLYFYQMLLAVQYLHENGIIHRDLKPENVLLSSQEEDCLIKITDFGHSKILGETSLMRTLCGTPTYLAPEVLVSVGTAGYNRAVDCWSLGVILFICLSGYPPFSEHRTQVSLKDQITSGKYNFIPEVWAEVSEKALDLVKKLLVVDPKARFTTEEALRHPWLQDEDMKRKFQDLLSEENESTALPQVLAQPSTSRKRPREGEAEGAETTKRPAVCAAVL
Description: Compound 1 was screened against a panel of 120 kinases, including those represented in FIG. 3A, using a 1 μM ATP concentration. The IC50 values, measured at the ATP Km for each kinase, are represented relative to Chk1 in FIG. 3B. Cellular IC50 values were derived from signal transduction assays in relevant cell lines using phosphor-epitope-specific antibodies.

MV-411 cells = test: MV-411 AML tumor xenograft model; format: in vivo; conditions: single agent
From the text: An MV-411 tumor xenograft model was used to test the ability of Compound 1 to inhibit AML tumor growth in vivo. MV-411 cells were mixed with Matrigel in a 1:1 ratio and injected subcutaneously into the right flanks of female NOD.SCID mice. Once tumors reached a volume of about 100 to 200 mm^3, mice were randomized into study groups (n=10 per group) and dosed with Compound 1 by oral gavage.

Efflux ratio = format: in vitro ADME
SK-MES-1 tumor cells = test: SK-MES-1 NSCLC tumor xenograft model; format: in vivo; conditions: treated mice
Description: (§1) In order to assess the in vivo efficacy of Compound 1, two different NSCLC xenograft models were used. SK-MES-1 or NCI-H727 tumor cells were inoculated subcutaneously in the flanks of athymic nude mice. Once tumors reached a volume of about 200 mm^3, mice were randomized into study groups (n=10 per group). Mice were treated by oral gavage with Compound 1 at a dose of 12.5, 25, or 50 mg/kg once per day. A negative control group was also included, wherein the animals were administered vehicle only.

NCI-H727 tumor cells = test: NCI-H727 NSCLC tumor xenograft model, single agent; format: in vivo; conditions: treated mice
Description: as §1

Jeko-1 cells [3] = test: Jeko-1 MCL xenograft model, single agent; conditions: mouse, in vivo
Description: (§2) The effects of Compound 1 were assessed in two different mantle cell lymphoma (MCL) xenograft models. Jeko-1 and or Maver-1 cells were inoculated subcutaneously in the flanks of CB17.SCID (for Jeko-1 cells) or athymic nude (for Maver-1 cells) mice. Once the tumors reached a volume of about 200 mm^3, the mice were randomized into study groups (n=10 per group). Mice were treated with Compound 1 by oral gavage, or with only vehicle as a negative control. In one treatment group, Compound 1 was administered once per day for 21 days. In the other treatment group, Compound 1 was administered twice per day for three cycles, wherein each cycle constituted treatment for three consecutive days, followed by no treatment for four consecutive days.

hERG = hERG (Homo sapiens, UniProt Q12809); test: hERG inhibition
hERG, sequence (Q12809 whole entry): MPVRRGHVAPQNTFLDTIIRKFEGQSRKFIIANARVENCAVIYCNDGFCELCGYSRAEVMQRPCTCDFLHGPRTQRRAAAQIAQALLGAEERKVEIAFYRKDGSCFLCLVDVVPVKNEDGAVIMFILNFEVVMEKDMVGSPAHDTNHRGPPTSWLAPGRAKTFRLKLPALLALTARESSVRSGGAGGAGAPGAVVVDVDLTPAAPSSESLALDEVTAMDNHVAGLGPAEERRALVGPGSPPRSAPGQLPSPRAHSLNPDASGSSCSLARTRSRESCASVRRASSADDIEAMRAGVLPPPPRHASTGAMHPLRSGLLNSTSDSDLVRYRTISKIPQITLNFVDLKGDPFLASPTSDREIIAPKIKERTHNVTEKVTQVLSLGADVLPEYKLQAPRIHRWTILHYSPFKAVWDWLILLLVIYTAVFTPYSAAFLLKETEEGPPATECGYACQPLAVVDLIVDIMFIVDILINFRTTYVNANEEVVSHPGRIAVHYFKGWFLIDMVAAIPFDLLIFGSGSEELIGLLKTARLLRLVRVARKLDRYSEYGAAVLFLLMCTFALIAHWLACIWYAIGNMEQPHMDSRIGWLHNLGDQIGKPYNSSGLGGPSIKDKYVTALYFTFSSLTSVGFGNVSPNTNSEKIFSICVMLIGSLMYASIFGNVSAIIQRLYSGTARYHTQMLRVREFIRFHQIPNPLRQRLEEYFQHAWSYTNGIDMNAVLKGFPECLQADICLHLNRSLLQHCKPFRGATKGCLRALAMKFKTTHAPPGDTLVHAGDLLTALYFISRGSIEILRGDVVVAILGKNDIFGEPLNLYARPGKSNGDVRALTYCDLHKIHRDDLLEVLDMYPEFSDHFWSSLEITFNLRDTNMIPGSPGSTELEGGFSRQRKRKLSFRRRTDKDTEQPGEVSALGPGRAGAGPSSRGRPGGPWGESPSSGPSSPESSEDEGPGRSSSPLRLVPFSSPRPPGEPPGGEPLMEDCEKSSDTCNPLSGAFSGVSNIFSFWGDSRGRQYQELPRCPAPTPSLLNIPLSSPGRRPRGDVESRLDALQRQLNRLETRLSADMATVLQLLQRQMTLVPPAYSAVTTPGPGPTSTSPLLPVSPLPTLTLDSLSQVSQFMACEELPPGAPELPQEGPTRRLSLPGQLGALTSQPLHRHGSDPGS

Chk1 [4] = biological target: T1, Chk1 (Homo sapiens, UniProt O14757); test: Chk1 enzymatic assay; format: biochemical; conditions: 10 μM [γ-33P]-ATP, 20 μM peptide substrate (SEQ ID NO:1); read-out: IC50, enzymatic potency against Chk1
T1 sequence (O14757 1-476): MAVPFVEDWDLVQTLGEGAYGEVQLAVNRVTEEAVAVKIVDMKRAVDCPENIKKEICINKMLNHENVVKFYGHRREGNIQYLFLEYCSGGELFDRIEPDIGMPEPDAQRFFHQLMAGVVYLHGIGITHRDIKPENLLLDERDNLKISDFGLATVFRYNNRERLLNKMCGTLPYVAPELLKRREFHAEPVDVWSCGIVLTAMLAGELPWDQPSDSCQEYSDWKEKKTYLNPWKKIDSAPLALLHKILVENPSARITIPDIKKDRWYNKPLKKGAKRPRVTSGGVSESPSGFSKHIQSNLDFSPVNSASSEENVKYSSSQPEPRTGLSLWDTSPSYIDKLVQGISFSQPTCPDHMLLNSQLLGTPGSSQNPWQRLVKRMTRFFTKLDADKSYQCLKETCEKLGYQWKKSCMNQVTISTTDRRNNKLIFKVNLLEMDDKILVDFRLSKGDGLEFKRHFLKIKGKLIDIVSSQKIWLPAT

Maver-1 cells = test: Maver-1 MCL xenograft model, single agent; conditions: mouse, in vivo
Description: as §2

CYP = CYP inhibition; format: in vitro ADME
Chk1 [5] = biological target: T1, Chk1; test: Cellular Chk1 assay, serine 296 phospho-epitope immunoblot in HT-29 cells; format: cell-based; conditions: HT-29 colon carcinoma cells, 18-hour assay, anti-Chk1 serine 296 phospho-epitope antibody
Description: Cellular Chk1 was assayed using HT-29 colon carcinoma cells in an 18-hour assay by immunoblotting with a rabbit anti-Chk1 serine 296 phosphor-epitope antibody (obtained from Cell Signaling Technology Inc.).

[6] = test system: solid and hematological tumor-derived cell lines; test: Large cell line panel proliferation screens (CellTiter-Glo); format: cell-based; conditions: in vitro; lower end printed in nM, upper end in μM; read-out: IC50 values, single agent, large cell line panels
Description: A panel of 232 carcinoma derived cell lines was screened in a high-throughput proliferation assay using dilutions of Compound 1 or cisplatin. Cell lines were treated with serial half-log dilutions of Compound 1 or cisplatin using a starting concentration of 30 μM to achieve 9 dose levels and assayed 72 hours later for proliferation using a CellTiter-Glo® Assay (Promega). IC50 (EC50) values were calculated by fitting the dose-response data using a nonlinear regression model.
A panel of about 70 hematopoietic cell lines was screened for sensitivity to Compound 1 in a 72-hour proliferation assay (CrownBio Omnipanel). Cell lines that were screened included those representing anaplastic large cell lymphoma (ALCL), acute myeloid leukemia (AML), B-cell acute lymphoblastic leukemia (B-ALL), Burkitt lymphoma, chronic lymphocytic leukemia (CLL), chronic myelogenous leukemia (CML), mantle cell lymphoma (MCL), multiple myeloma (MM), acute promyelocytic leukemia (PML), and T-cell acute lymphoblastic leukemia (T-ALL).

For `C=CCn1c(=O)c2cnc(Nc3ccc(N4CCN(C)CC4)cc3)nc2n1-c1cccc(C(C)(C)O)n1` [AZD-1775, 2-allyl-1-(6-(2-hydroxypropan-2-yl)pyridin-2-yl)-6-((4-(4-methylpiperazin-1-yl)phenyl)amino)-1H-pyrazolo[3,4-d]pyrimidin-3(2H)-one, reference compound], the tumor growth (Jeko-1 cells [1]; oral gavage once per day, three cycles of 3 days on/4 days off) was “inhibited by both agents alone”.
With `COc1cc(C2(F)CCN(C)CC2)ccc1-c1cc(Nc2cnc(C#N)cn2)n[nH]1` [Compound 1, 5-((5-(4-(4-fluoro-1-methylpiperidin-4-yl)-2-methoxyphenyl)-1H-pyrazol-3-yl)amino)pyrazine-2-carbonitrile] the metabolic stability (Metabolic stability) was “good”, the cardiovascular safety findings [2] was “low risk of cardiotoxicity; also recorded: no findings” and the “selectivity for Chk1 over Chk2” value (Chk2) was “more than 1,000 ×”. The “tolerability (body weight)” value (MV-411 cells) was “well-tolerated”, the efflux ratio (Efflux ratio) was “low” and the “effect on body weight” value (SK-MES-1 tumor cells) was “minimal effects on body weight”. For the same molecule, the “effect on body weight” value (NCI-H727 tumor cells) was “minimal effects on body weight”, the “tolerability (body weight)” value (Jeko-1 cells [1]) was “well-tolerated” and the “tolerability (body weight)” value (Jeko-1 cells [3]) was “well-tolerated”. For the same molecule, the hERG inhibition index (hERG) was “excellent”, the IC50 (Chk1 [4]) was 0.124 nM and the “tolerability (body weight)” value (Maver-1 cells) was “well-tolerated”. The CYP inhibition (CYP) was “no CYP inhibition liabilities”, the IC50 (Chk1 [5]) was 0.511 nM and the IC50 [6] was no less than 30 nM.
